In patent US10273279B2, “Protease activated receptor-1 (PAR1) derived cytoprotective polypeptides and related methods” (THE SCRIPPS RESEARCH INSTITUTE, priority 2011, dated 2019):

Columns and labels:
[1] = test system: VEGF-induced vascular leakage in SKH1 hairless mice; assay: In vivo vascular permeability assay (modified Miles assay, VEGF-induced Evans blue extravasation in skin); design: species or system mouse; settings: for decrease in vascular leakage compared to PBS control: 125 μg peptide i.v. retro-orbital 5 min before s.c. VEGF165, Evans blue at 700 nm; for vascular leakage in the absence of VEGF: BSA vehicle sites, 125 μg peptide i.v.
Description: To probe whether TR47-66 could induce vascular protective effects in vivo, a modification of the modified Miles assay was used in which vascular permeability is measured by the extravasation of Evans blue dye in the skin induced by local subcutaneous injection of vascular endothelial growth factor (VEGF)165. Immunocompetent SKH1 hairless mice were used to avoid the need for hair removal that often can result in artifactual leakage due to inflammation of the skin. Evans blue extravasation in the skin was quantified using the Odyssey near-infrared fluorescent imager at 700 nm. TR47-66 peptide or the control scrTR47 peptide were injected i.v. in the retro-orbital sinus 5 min before local subcutaneous injection of recombinant murine VEGF or BSA control and 30 min after i.v. administration of Evans blue. In the absence of TR47-66 (PBS control), VEGF induced clearly distinguishable areas of Evans blue extravasation, whereas after injection of BSA vehicle control only the needle points marking the injection site could be observed. Quantification of Evans blue extravasation by near infrared fluorescence at 700 nm eliminated the time consuming need for Evans blue extraction from punch biopsy and provided reliable and reproducible results. […] Thus, like APC, the TR47 peptide causes activation of Rac1, stabilizes endothelial barriers in vitro, and in vivo can markedly reduce vascular leakage. The study was approved by the Institutional Animal Care and Use Committee of The Scripps Research Institute and complied with National Institutes of Health guidelines. SK1H1-E hairless male (6 to 8 weeks old) were from Charles River Labs (Wilmington, Mass.). Vascular permeability was determined using a known VEGF-induced leakage model (Sanna et al., Nat. Chem. Biol. 2006; 2(8):434-441; and Miles et al., J Physiol 1952; 118(2):228-257) with some modifications. Briefly, 100 μL of a sterile-filtered solution containing 0.5% (w/v) Evans blue (Sigma) in 0.9% NaCl (Sigma) was injected in isofluran-anesthetized mice. After 30 min, 50 μL of peptides (125 μg; TR47 or scrTR47) or PBS were injected intravenously in the retro-orbital sinus of mice anesthetized with Ketamin-Xylazin (100 and 10 mg/kg, respectively). After 5 min, mice received subcutaneously 15 μL of 75 ng/injection recombinant mouse VEGF165 (BioVision, Milpitas, Calif.) in 0.1% BSA-PBS (3 sites on the right side of the abdomen) or vehicle (2 sites on the left side). After 30 min, mice were sacrificed, photographed, and Evans blue extravasation in the skin was determined using the Odyssey Imager (LI-COR Biosciences, Lincoln, Nebr.) in the 700 nm channel with 4 mm offset. Quantification of the intensity of the Evans blue dye signal was done using the Odyssey Application Software version 3.0. […]

[2] = test system: EA.hy.926 endothelial cells; assay: Staurosporine-induced endothelial cell apoptosis (Apopercentage dye); assay type: cell-based, human; settings: 4 hrs pretreatment, 50 μM NPND, 50 μM scr-NPND or 10 μM TFLL, staurosporine 10 μM
Description: Activated Protein C (APC) conveys anti-apoptotic activity to EA.hy.926 cells that requires functional PAR1 receptor and APC binding to the endothelial protein C receptor (EPCR). See, e.g., Mosnier at al., Biochem J. 2003; 373:65-70; and Mosnier at al., Blood. 2007; 109:3161-3172.
Methods: EA.hy.926 cells (ATCC: CRL-2922) were grown in 24 well plates in DMEM (Invitrogen #12430) supplemented with glutamax (Invitrogen #35050) and 10% FBS (Hyclone #35-011-CV) in a 37° C. cell incubator with a humidified atmosphere and 5% CO2 in air until confluency. Cells were treated for 4 hrs with vehicle control, 50 μM NPND, 50 μM scr-NPND or 10 μM TFLL after which staurosporine (10 μM) and the Apopercentage dye (Biocolor) were added according the manufacturer's instructions. After 1 hr cells were washed with 2×1 ml PBS and 110 μl of the dye release agent was added to the cells. Subsequently 100 μl aliquots were transferred to a black 96 well plate and fluorescence was measured (530 nm excitation/580 nm emission). Apoptosis was expressed as a percentage of cells treated with 10 mM H2O2 for which apoptosis was set at 100%.

Row | Sequence | decrease in vascular leakage compared to PBS control [1] | vascular leakage in the absence of VEGF [1] | inhibition of staurosporine-induced endothelial cell apoptosis [2] | inhibition of staurosporine-induced endothelial cell apoptosis ([2]; listed as NPND-peptide)
1 | GDENENEKPNWYELKEPDSF (scrambled sequence) [scr-TR47-66, control scrambled TR47-66 peptide containing scrambled residues 47-66, reference compound] | indiscriminate from PBS control | Neither TR47-66 nor scrTR47 affected vascular leakage | did not convey detectable anti-apoptotic effects | 
2 | NPNDKYEPFWEDEEKNESGL (listed as Homo sapiens) [TR47-66] | 45% | Neither TR47-66 nor scrTR47 affected vascular leakage | significantly inhibited | inhibited staurosporine-induced endothelial cell apoptosis
